Where two headings read alike, the source gives them in different places.
Assays:
Assay type in all cases: cell-based
[1] = test system: HCV replicons containing NS5A genes from genotype 1b HCV infected humans; assay: Transient replicon (shuttle vector) assay with NS5A genes from patient isolates, genotype 1b
[2] = test system: HCV replicon containing NS5A from genotype 2a; assay: Stable 1b-Con1 replicon cell line containing a portion of NS5A from genotype 2a (luciferase); settings: Hepatitis C virus
Method: (§1) This replicon construct contains a NotI restriction site upstream of NS5A, and a BlpI restriction site just after NS5A amino acid 214. Viral RNA from infected subjects was isolated according to Middleton et al., J VIROL METHODS 145:137-145 (2007) and Tripathi et al., ANTIVIRAL RES 73:40-49 (2007). RT-PCR was conducted on the RNA to generate a DNA fragment encoding NS5A amino acids 1-214. The PCR fragment incorporated NotI and BlpI compatible ends, and this fragment was ligated into a plasmid containing the 1b-Con1 replicon. Stable cell lines were generated by introducing these constructs into Huh-7 cells.
(§2) Briefly, replicon-containing cells were seeded into 96-well plates at a density of 5000 cells per well in 100 μl DMEM containing 5% FBS. The following day, compounds were diluted in dimethyl sulfoxide (DMSO) to generate a 200× stock in a series of eight half-log dilutions. The dilution series was then further diluted 100-fold in the medium containing 5% FBS. […] Luciferin solution (50 μl, Promega) was added to each well, and luciferase activity was measured with a Victor II luminometer (Perkin-Elmer). The percent inhibition of HCV RNA replication was calculated for each compound concentration and the EC50 value was calculated using nonlinear regression curve fitting to the 4-parameter logistic equation and GraphPad Prism 4 software (Halfman, METHODS ENZYMOL 74 Pt C: 481-497 (1981)). […]

[3] = test system: HCV replicons containing NS5A genes from genotype 2a HCV infected humans; assay: Transient replicon (shuttle vector) assay with NS5A genes from patient isolates, genotype 2a; settings: Hepatitis C virus
[4] = test system: HCV replicons containing NS5A genes from genotype 3a HCV infected humans; assay: Transient replicon (shuttle vector) assay with NS5A genes from patient isolates, genotype 3a
[5] = test system: HCV replicon containing NS5A from genotype 4a; assay: Stable 1b-Con1 replicon cell line containing a portion of NS5A from genotype 4a (luciferase); settings: Hepatitis C virus
Method: as §1, §2

[6] = test system: HCV replicons containing NS5A genes from genotype 2b HCV infected humans; assay: Transient replicon (shuttle vector) assay with NS5A genes from patient isolates, genotype 2b
[7] = test system: HCV genotype 1b-Con1 replicon; assay: HCV stable subgenomic replicon cell culture assay (luciferase reporter), genotype 1b-Con1; settings: Hepatitis C virus
[8] = test system: HCV replicon containing NS5A from genotype 5a; assay: Stable 1b-Con1 replicon cell line containing a portion of NS5A from genotype 5a (luciferase); settings: Hepatitis C virus
Method: as §1, §2

[9] = test system: HCV replicon containing NS5A from genotype 3a; assay: Stable 1b-Con1 replicon cell line containing a portion of NS5A from genotype 3a (luciferase); settings: Hepatitis C virus
Method: as §1, §2

[10] = test system: HCV replicons containing NS5A genes from genotype 6a HCV infected humans; assay: Transient replicon (shuttle vector) assay with NS5A genes from patient isolates, genotype 6a
[11] = test system: HCV replicon containing NS5A from genotype 6a; assay: Stable 1b-Con1 replicon cell line containing a portion of NS5A from genotype 6a (luciferase); settings: Hepatitis C virus
Method: as §1, §2

[12] = test system: HCV genotype 1a-H77 replicon; assay: HCV stable subgenomic replicon cell culture assay (luciferase reporter), genotype 1a-H77; settings: Hepatitis C virus
[13] = test system: HCV replicon containing NS5A from genotype 2b; assay: Stable 1b-Con1 replicon cell line containing a portion of NS5A from genotype 2b (luciferase); settings: Hepatitis C virus
Method: as §1, §2

[14] = read-out: Mean EC50, pM, ± Std. Dev.

## COC(=O)N[C@H](C(=O)N1CCC[C@H]1C(=O)Nc1ccc([C@@H]2CC[C@@H](c3ccc(NC(=O)[C@@H]4CCCN4C(=O)[C@@H](NC(=O)OC)C(C)C)cc3)N2c2ccc(C(C)(C)C)cc2)cc1)C(C)C [Compound 1, dimethyl (2S,2′S)-1,1′-((2S,2′S)-2,2′-(4,4′-((2S,5 S)-1-(4-tert-butylphenyl)pyrrolidine-2,5-diyl)bis(4,1-phenylene))bis(azanediyl)bis(oxomethylene)bis(pyrrolidine-2,1-diyl))bis(3-methyl-1-oxobutane-2,1-diyl)dicarbamate]
[1]; Hepatitis C virus, Genotype 1b, isolate 1393
  EC50: 1.15 pM
[1]; Hepatitis C virus, Genotype 1b, isolate 4377
  EC50: 1.53 pM
[1]; Hepatitis C virus, Genotype 1b, isolate 4386
  EC50: 1.21 pM
[1]; Hepatitis C virus, Genotype 1b, isolate 4410
  EC50: 1.2 pM
[1]; Hepatitis C virus, Genotype 1b, isolate 9432
  EC50: 1.12 pM
[1]; Hepatitis C virus, read-out: EC50, pM, Mean ± Std. Dev, mean of the 11 genotype 1b clinical isolates
  EC50: 1 pM
[1]; read-out: EC50, pM, Mean ± Std. Dev, mean of the 11 genotype 1b clinical isolates
  EC50: 1.03 ± 0.23 pM
[2]; read-out: EC50 value
  EC50: < 20 pM
[2]; [14]
  EC50: 12.4 ± 2.7 pM
[3]; Genotype 2a, isolate 34021
  EC50: 5.07 pM
[3]; Genotype 2a, isolate 84836
  EC50: 11.3 pM
[3]; Genotype 2a, isolate 88935
  EC50: 2.56 pM
[3]; Genotype 2a, isolate 88939
  EC50: 2.03 pM
[3]; Genotype 2a, isolate 91106
  EC50: 3.39 pM
[3]; Genotype 2a, isolate 10124423
  EC50: 3.46 pM
[3]; Genotype 2a, isolate U01
  EC50: 4.79 pM
[3]; read-out: EC50, pM, Mean ± Std. Dev., mean of the genotype 2a isolates (methionine at NS5A position 31)
  EC50: 3.8 pM
[4]; Genotype 3a, isolate 55500, variant K30 (A30K)
  EC50: 55.2 pM
[4]; Hepatitis C virus, Genotype 3a, isolate 7153-55
  EC50: 2.32 pM
[4]; Hepatitis C virus, Genotype 3a, isolate 9110-47
  EC50: 3.87 pM
[4]; Hepatitis C virus, Genotype 3a, isolate 48557
  EC50: 11.4 pM
[4]; Hepatitis C virus, Genotype 3a, isolate 55500, variant K30 (A30K)
  EC50: 55 pM
[4]; Hepatitis C virus, Genotype 3a, isolate 55510
  EC50: 3.03 pM
[4]; Hepatitis C virus, Genotype 3a, isolate 55534
  EC50: 3.28 pM
[4]; Hepatitis C virus, Genotype 3a, isolate 57223
  EC50: 4.14 pM
[4]; Hepatitis C virus, Genotype 3a, isolate 57314
  EC50: 2.02 pM
[4]; Hepatitis C virus, Genotype 3a, isolate 85501
  EC50: 3.05 pM
[4]; Hepatitis C virus, Genotype 3a, isolate 89241, variant V28
  EC50: 2.71 pM
[4]; Hepatitis C virus, Genotype 3a, isolate 95079
  EC50: 15.2 pM
[4]; Hepatitis C virus, Genotype 3a, isolate 9810069
  EC50: 2.52 pM
[4]; Hepatitis C virus, read-out: EC50, pM, Mean ± Std. Dev., mean of 12 of the 13 genotype 3a samples (without the A30K sample)
  EC50: 4.5 pM
[4]; read-out: EC50, pM, Mean ± Std. Dev., mean of 12 of the 13 genotype 3a samples (without the A30K sample)
  EC50: 4.54 ± 4.26 pM
[5]; read-out: EC50 value
  EC50: < 20 pM
[5]; [14]
  EC50: 1.71 ± 0.88 pM
[6]; Hepatitis C virus, Genotype 2b, isolate 48477
  EC50: 1.11 pM
[6]; Hepatitis C virus, Genotype 2b, isolate 51629, variant F28
  EC50: 44.7 pM
[6]; Hepatitis C virus, Genotype 2b, isolate 9992612
  EC50: 5.15 pM
[6]; genotype 2b sample containing L28F variant
  loss in activity: 75 fold
[6]; read-out: EC50, pM, Mean ± Std. Dev., mean of 13/14 genotype 2b samples (without the L28F sample)
  EC50: 1.08 ± 1.23 pM
[7]; Genotype 1b-Con1 replicon, 0% human plasma (5% fetal bovine serum), read-out: Mean EC50, pM, ± Std. Dev.
  EC50: 5 ± 1.9 pM
[7]; against HCV genotype 1b (summary statement), read-out: EC50 value
  EC50: < 20 pM
[8]; read-out: EC50 value
  EC50: < 20 pM
[8]; [14]
  EC50: 4.3 ± 0.9 pM
[9]; read-out: EC50 value
  EC50: < 20 pM
[9]; [14]
  EC50: 19.3 ± 5.8 pM
[10]; Hepatitis C virus, isolate 1110880, variant L28
  EC50: 0.042 nM
[10]; Hepatitis C virus, isolate 1110880-L28F, variant F28 (L28F mutation introduced)
  EC50: 0.068 nM
[10]; isolate 1110880, variant L28
  EC50: 0.0423 nM
[10]; isolate 1110880-L28F, variant F28 (L28F mutation introduced)
  EC50: 0.068 nM
[11]; read-out: EC50 value
  EC50: < 500 pM
[11]; [14]
  EC50: 415 ± 97 pM
[12]; Genotype 1a-H77 replicon, 0% human plasma (5% fetal bovine serum), read-out: Mean EC50, pM, ± Std. Dev.
  EC50: 14.1 ± 6.8 pM
[12]; against HCV genotype 1a (summary statement), read-out: EC50 value
  EC50: < 20 pM
[12]; genotype 1a and 1b replicons together, in the presence of 5% FBS, read-out: mean EC50 values
  EC50: 5 to 14 pM
[13]; read-out: EC50 value
  EC50: < 20 pM
[13]; [14]
  EC50: 4.3 ± 1.2 pM

From patent US20140080886A1, “Methods for Treating HCV” (priority 2012, published 2014)
